Among the data in US12053459B2, “CDK2 inhibitors and methods of using the same” (Cedilla Therapeutics, Inc., priority 2021, dated 2024) are IC50 values, retold here.

The structures appear in SMILES notation.

Test [1] concerns the target CDK2/Cyclin E1(14-475) (Homo sapiens, UniProt P24941). Briefly: Caliper LabChip EZ Reader mobility shift assay, inhibition of CDK2/Cyclin E1 activity. Format: biochemical. The settings on record: class symbols A-D. Here is the method: Inhibition of CDK2/Cyclin E1 activity in the presence of compounds of the present disclosure was evaluated using a Caliper LabChip® EZ Reader mobility shift assay. In the assay, activated CDK2/Cyclin E1 catalyzes the phosphorylation of a fluorescently tagged peptide 5-FAM-QSPKKG-CONH2 (PerkinElmer, FL Peptide 18) which induces a difference in capillary electrophoresis mobility. The peptide substrate and product were measured, and the conversion ratio was used to determine the inhibition (as % activity and IC50 values) of CDK2/Cyclin E1. Reactions contained 50 mM HEPES pH 7.5, 10 mM MgCl2, 1 mM EDTA, 2 mM DTT, 0.01% Brij35, 0.5 mg/mL BSA, 0.1% DMSO, 2.5 nM CDK2/Cyclin E1(14-475), 100 μM ATP, and 1.5 μM fluorescent peptide substrate.
Dose titrations of inhibitors in 100% DMSO were combined with 3.25 nM CDK2/Cyclin E1(14-475) and 130 μM of ATP in reaction buffer. The mixtures were incubated for 30 minutes before the addition of fluorescent peptide substrate to initiate the kinase reaction. The final conditions were 2.5 nM CDK2/Cyclin E1(14-475), 100 μM ATP, and 1.5 μM fluorescent peptide. The reactions were stopped after 100 minutes with the addition of EDTA (6 mM final EDTA concentration). The stopped reactions were analyzed on a Caliper LabChip® EZ Reader II. The conversion ratios were normalized to yield % activity, plotted against compound concentration, and fit to a four-parameter equation to determine the IC50 for each compound.

Test [2] relates to Kuramochi cells. Briefly: BrdU cell proliferation assay (colorimetric ELISA), Kuramochi cells. The test is classed as cell-based. The following applies: class symbols A-D. Here is the method: A BrdU assay was used as a measure of proliferation based on the DNA replication process of proliferating cells. BrdU, a pyrimidine analog, is added to the cell culture and incorporated into the DNA of proliferating cells. The presence of the BrdU analog was then measured through a colorimetric ELISA. After fixation and permeabilization of cells, peroxidase-conjugated antibody recognizing BrdU is added and allowed to incubate, followed by thorough washing to remove unbound antibody. In order to quantify the amount of bound antibody, peroxidase substrate is added and produces a color that can be measured at 450 nm.
On day −1, Kuramochi cells (Sekisui XenoTech JCRB0098) were seeded at 2,000 cells/well in columns 2-12 of a 96 well plate (Corning, CLS3596) in 150 uL media and allowed to adhere overnight at 37 degree with 5% CO2. In order to assess specificity of the compounds, Kuramochi RB^KO cells were also plated and treated, as RB^KO cells were not expected to show a proliferative response to CCNE/CDK specific inhibitors.
On day 0, the source plate was prepared by adding 10 mM compounds and performing 3-fold serial dilutions for a 4-point dose response of each compound. Using a multichannel pipette, 2 uL of the contents of the source plate were stamped into an intermediate plate with 500 uL of RPMI 1640 Media, GlutaMAX Supplement (Life Technologies, 61870127) in each well of a Nunc 96 DeepWell™ plate, non-treated 96 DeepWell plate, 2 mL/well, sterile, natural, 60/cs (Sigma Z717274) and mixed thoroughly. 50 uL from row A of this intermediate plate were added to rows A-H of one plate of previously seeded Kuramochi cells, and each subsequent row of the intermediate plate was added to a full plate of cells.
On day 4, the plates were developed using the BrdU ELISA Cell Proliferation Assay according to manufacturer's instructions (Roche, 11647229001). Briefly, BrdU was diluted 1:100 in Gibco®, Opti-MEM® and 20 μL/well was added, shaken for 10 minutes at 350 rpm, and then returned to the incubator for 1 hour. Following incubation, the medium was discarded, and the cells were fixed by adding 200 μL of Fix/Denature solution. The anti-BrdU peroxidase antibody was diluted 1:1000 in OptiMEM, added at 100 μL/well, and incubated while shaking (350 rpm) for one hour. Three washes with PBS were performed to remove any unbound antibody, followed by the addition of 100 μL of substrate solution to each well. […] was then added to halt the reaction, and plates were read out using an Envision spectrophotometer (Perkin Elmer) set to read 450 nm absorbance. Background absorbance values from empty wells were subtracted from all samples and then normalized to DMSO treated wells.

On to `CNC(=O)[C@H](CCCc1ccccc1)NC(=O)C1CN(C(=O)Cc2c[nH]c3cc(Cl)ccc23)CC2CN(C(=O)c3cc(C)n(C)n3)CC21` (stereo partly shown) [I-39], for which the IC50 in test [1] and in test [2] was greater than 10 µM throughout.

Take `CNC(=O)[C@H](CCCc1ccccc1)NC(=O)C1CN(C(=O)Cc2c[nH]c3cc(Cl)ccc23)CC2CN(C(=O)c3cn4ccncc4n3)CC21` (stereo partly shown) [I-40]: the IC50 in test [1] and in test [2] was greater than 10 µM in each case.

Consider `CCOc1cnc(C(=O)N2CC3CN(C(=O)Cc4c[nH]c5cc(Cl)ccc45)CC(C(=O)N[C@@H](CCCc4ccccc4)C(=O)NC)C3C2)cn1` (stereo partly shown) [I-41], for which the IC50 in test [1] and in test [2] was greater than 10 µM throughout.

For the compound `CNC(=O)[C@H](CCCc1ccccc1)NC(=O)C1CN(C(=O)Cc2c[nH]c3cc(Cl)ccc23)CC2CN(C(=O)c3ccc4cccn4c3)CC21` (stereo partly shown) [I-43], the IC50 in test [1] and in test [2] was greater than 10 µM each time.

Consider `CNC(=O)[C@H](CCCc1ccccc1)NC(=O)C1CN(C(=O)Cc2c[nH]c3cc(Cl)ccc23)CC2CN(C(=O)c3cnc(C4CC4)nc3)CC21` (stereo partly shown) [I-44], for which the 50% inhibitory concentration (IC50) in test [1] and in test [2] was greater than 10 µM throughout.

In the case of `CNC(=O)[C@H](CCCc1ccccc1)NC(=O)C1CN(C(=O)Cc2c[nH]c3cc(Cl)ccc23)CC2CN(C(=O)c3ccc4c(c3)CNC4=O)CC21` (stereo partly shown) [I-45], the IC50 in test [1] and in test [2] was greater than 10 µM in each case.

With `CNC(=O)[C@H](CCCc1ccccc1)NC(=O)C1CN(C(=O)Cc2c[nH]c3cc(Cl)ccc23)CC2CN(C(=O)c3ccc(OC(C)C)c(F)c3)CC21` (stereo partly shown) [I-46], the half-inhibitory concentration (IC50) in test [1] is 0.5 to 5 µM; in test [2], greater than 10 µM.

`CNC(=O)[C@H](CCCc1ccccc1)NC(=O)C1CN(C(=O)Cc2c[nH]c3cc(Cl)ccc23)CC2CN(C(=O)c3nn(C)c4ccccc34)CC21` (stereo partly shown) [I-47]: the IC50 in test [1] and in test [2] was greater than 10 µM in each case.

Take `CNC(=O)[C@H](CCCc1ccccc1)NC(=O)C1CN(C(=O)Cc2c[nH]c3cc(Cl)ccc23)CC2CN(C(=O)c3c4ccccc4nn3C)CC21` (stereo partly shown) [I-48]: the IC50 in test [1] and in test [2] was greater than 10 µM in each case.

As to `CNC(=O)[C@H](CCCc1ccccc1)NC(=O)C1CN(C(=O)Cc2c[nH]c3cc(Cl)ccc23)CC2CN(C(=O)c3ccc(CC(C)C)cc3)CC21` (stereo partly shown) [I-52], the IC50 in test [1] was 5 to 10 µM; in test [2], greater than 10 µM.

`CNC(=O)[C@H](CCCc1ccccc1)NC(=O)C1CN(C(=O)Cc2c[nH]c3cc(Cl)ccc23)CC2CN(C(=O)c3ccc(NC(=O)C4CC4)c(OC)c3)CC21` (stereo partly shown) [I-54]: the half-maximal inhibitory concentration (IC50) in test [1] and in test [2] was greater than 10 µM throughout.

As for `CNC(=O)[C@H](CCCc1ccccc1)NC(=O)C1CN(C(=O)Cc2c[nH]c3cc(Cl)ccc23)CC2CN(C(=O)c3cnn(C)c3)CC21` (stereo partly shown) [I-55], the IC50 in test [1] and in test [2] was greater than 10 µM in each case.

For the compound `CNC(=O)[C@H](CCCc1ccccc1)NC(=O)C1CN(C(=O)Cc2c[nH]c3cc(Cl)ccc23)CC2CN(C(=O)c3cc(C)[nH]n3)CC21` (stereo partly shown) [I-56], the IC50 is 0.5 to 5 µM in test [1] and greater than 10 µM in test [2].

On to `CNC(=O)[C@H](CCCc1ccccc1)NC(=O)C1CN(C(=O)Cc2c[nH]c3cc(Cl)ccc23)CC2CN(C(=O)c3ncccn3)CC21` (stereo partly shown) [I-57], for which the IC50 in test [1] and in test [2] was greater than 10 µM each time.

As to `CCc1ccc(C(=O)N2CC3CN(C(=O)Cc4c[nH]c5cc(Cl)ccc45)CC(C(=O)N[C@@H](CCCc4ccccc4)C(=O)NC)C3C2)nc1` (stereo partly shown) [I-58], the IC50 in test [1] and in test [2] was greater than 10 µM in each case.

With `CNC(=O)[C@H](CCCc1ccccc1)NC(=O)C1CN(C(=O)Cc2c[nH]c3cc(Cl)ccc23)CC2CN(C(=O)c3ccc(-c4cncnc4)cc3)CC21` (stereo partly shown) [I-59], the IC50 in test [1] and in test [2] was greater than 10 µM throughout.

In the case of `CNC(=O)[C@H](CCCc1ccccc1)NC(=O)C1CN(C(=O)Cc2c[nH]c3cc(Cl)ccc23)CC2CN(C(=O)c3cncc(C)n3)CC21` (stereo partly shown) [I-60], the IC50 in test [1] and in test [2] was greater than 10 µM throughout.

Take `CNC(=O)[C@H](CCCc1ccccc1)NC(=O)C1CN(C(=O)Cc2c[nH]c3cc(Cl)ccc23)CC2CN(C(=O)c3cc4ccccc4[nH]3)CC21` (stereo partly shown) [I-61]: the IC50 in test [1] and in test [2] was greater than 10 µM each time.

For the compound `CNC(=O)[C@H](CCCc1ccccc1)NC(=O)C1CN(C(=O)Cc2c[nH]c3cc(Cl)ccc23)CC2CN(C(=O)c3ccc4c(N)n[nH]c4c3)CC21` (stereo partly shown) [I-65], the IC50 in test [1] and in test [2] was greater than 10 µM throughout.

`CNC(=O)[C@H](CCCc1ccccc1)NC(=O)C1CN(C(=O)Cc2c[nH]c3cc(Cl)ccc23)CC2CN(C(=O)c3ccc(NS(C)(=O)=O)c(OC)c3)CC21` (stereo partly shown) [I-66]: the 50% inhibitory concentration (IC50) in test [1] and in test [2] was greater than 10 µM each time.

Regarding `CNC(=O)[C@H](CCCc1ccccc1)NC(=O)C1CN(C(=O)Cc2c[nH]c3cc(Cl)ccc23)CC2CN(C(=O)c3ccc(NC(=O)CC4CC4)c(OC)c3)CC21` (stereo partly shown) [I-69], the IC50 in test [1] and in test [2] was greater than 10 µM each time.

Consider `CNC(=O)[C@H](CCCc1ccccc1)NC(=O)C1CN(C(=O)Cc2c[nH]c3cc(Cl)ccc23)CC2CN(C(=O)c3cnc(-c4ccccc4)s3)CC21` (stereo partly shown) [I-70], for which the IC50 in test [1] and in test [2] was greater than 10 µM each time.

Take `CNC(=O)[C@H](CCCc1ccccc1)NC(=O)C1CN(C(=O)Cc2c[nH]c3cc(Cl)ccc23)CC2CN(C(=O)c3cc(-c4ccccc4)n(C)n3)CC21` (stereo partly shown) [I-71]: the IC50 in test [1] and in test [2] was greater than 10 µM each time.

In the case of `CNC(=O)[C@H](CCCc1ccccc1)NC(=O)C1CN(C(=O)Cc2c[nH]c3cc(Cl)ccc23)CC2CN(C(=O)c3ccc4[nH]c(=O)oc4c3)CC21` (stereo partly shown) [I-72], the IC50 in test [1] and in test [2] was greater than 10 µM in each case.

In the case of `CNC(=O)[C@H](CCCc1ccccc1)NC(=O)C1CN(C(=O)Cc2c[nH]c3cc(Cl)ccc23)CC2CN(C(=O)c3ccc4c(c3)oc(=O)n4C)CC21` (stereo partly shown) [I-73], the IC50 in test [1] and in test [2] was greater than 10 µM in each case.

Consider `CNC(=O)[C@H](CCCc1ccccc1)NC(=O)C1CN(C(=O)Cc2c[nH]c3cc(Cl)ccc23)CC2CN(C(=O)c3c[nH]c(-c4ccccc4)n3)CC21` (stereo partly shown) [I-74], for which the IC50 in test [1] and in test [2] was greater than 10 µM in each case.

Take `CNC(=O)[C@H](CCCc1ccccc1)NC(=O)C1CN(C(=O)Cc2c[nH]c3cc(Cl)ccc23)CC2CN(C(=O)c3ccc4oc(=O)[nH]c4c3)CC21` (stereo partly shown) [I-75]: the IC50 in test [1] and in test [2] was greater than 10 µM in each case.

With `CNC(=O)[C@H](CCCc1ccccc1)NC(=O)C1CN(C(=O)Cc2c[nH]c3cc(Cl)ccc23)CC2CN(C(=O)c3ccc(C)cn3)CC21` (stereo partly shown) [I-78], the concentration for half-maximal inhibition (IC50) in test [1] and in test [2] was greater than 10 µM in each case.

On to `CNC(=O)[C@H](CCCc1ccccc1)NC(=O)C1CN(C(=O)Cc2c[nH]c3cc(Cl)ccc23)CC2CN(C(=O)c3ccc(-c4cccnc4)cc3)CC21` (stereo partly shown) [I-79], for which the IC50 in test [1] was 5 to 10 µM; in test [2] it was greater than 10 µM.

With `CNC(=O)[C@H](CCCc1ccccc1)NC(=O)C1CN(C(=O)Cc2c[nH]c3cc(Cl)ccc23)CC2CN(C(=O)c3ccc4cccnc4c3)CC21` (stereo partly shown) [I-80], the concentration for half-maximal inhibition (IC50) in test [1] and in test [2] was greater than 10 µM in each case.

For `CNC(=O)[C@H](CCCc1ccccc1)NC(=O)C1CN(C(=O)Cc2c[nH]c3cc(Cl)ccc23)CC2CN(C(=O)c3ccc(OC(F)(F)F)c(OC)c3)CC21` (stereo partly shown) [I-82], the figures for the IC50 in test [1] and in test [2] were 0.5 to 5 µM and 5 to 10 µM, respectively.

Consider `CNC(=O)[C@H](CCCc1ccccc1)NC(=O)C1CN(C(=O)Cc2c[nH]c3cc(Cl)ccc23)CC2CN(C(=O)c3cc4c(c(OC)c3)OC(C)(C)C4)CC21` (stereo partly shown) [I-83], for which the IC50 in test [1] was no more than 0.5 µM; in test [2] it was greater than 10 µM.
